US20090326029A1, “NON-CYCLIC SUBSTITUTED BENZIMIDAZOLE THIOPHENE BENZYL ETHER COMPOUNDS” (priority 2006, published 2009)
Counter-ions that a name gives are not always drawn.

What was measured:
PLK1 kinase domain = target: T1, PLK1 kinase domain (Homo sapiens, UniProt P53350); test: Assay for Inhibition of PLK1 (SPA kinase assay); type: biochemical; details: 2 nM PLK1 kinase domain, 1 μM ATP, 1 μM substrate peptide, 22° C.; read-out: PLK1 pIC50 (converted)
T1 construct: 6xHis (leader MKKGHHHHHHD) (N); made in house; host or cells: baculovirus infected T. ni cells
T1 sequence (P53350 21-346): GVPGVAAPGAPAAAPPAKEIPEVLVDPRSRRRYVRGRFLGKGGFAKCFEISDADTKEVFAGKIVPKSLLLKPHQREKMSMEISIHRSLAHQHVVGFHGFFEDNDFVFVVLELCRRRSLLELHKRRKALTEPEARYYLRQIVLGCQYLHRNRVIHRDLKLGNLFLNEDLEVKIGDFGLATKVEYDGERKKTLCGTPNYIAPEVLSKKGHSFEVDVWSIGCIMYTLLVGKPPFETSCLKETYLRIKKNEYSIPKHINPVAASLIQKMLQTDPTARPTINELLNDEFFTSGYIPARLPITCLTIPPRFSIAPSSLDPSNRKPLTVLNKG
Protocol: 6× N-terminal His-tagged PLK kinase domain (amino acids 21-346 preceded by MKKGHHHHHHD) SEQ ID: No. 1. was prepared from baculovirus infected T. ni cells under polyhedrin promoter control. All procedures were performed at 4° C. Cells were lysed in 50 mM HEPES, 200 mM NaCl, 50 mM imidazole, 5% glycerol; pH 7.5. The homogenate was centrifuged at 14K rpm in a SLA-1500 rotor for 1 hr and the supernatant filtered through a 1.2 micron filter. The supernatant was loaded onto a Nickel chelating Sepharose (Amersham Pharmacia) column and washed with lysis buffer. Protein was eluted using 20%, 30% and 100% buffer B steps where buffer B was 50 mM HEPES, 200 mM NaCl, 300 mM imidazole, 5% glycerol; pH 7.5. Fractions containing PLK were determined by SDS-PAGE. Fractions containing PLK were diluted five-fold with 50 mM HEPES, 1 mM DTT, 5% glycerol; pH 7.5, then loaded on an SP Sepharose (Amersham Pharmacia) column. After washing the column with 50 mM HEPES, 1 mM DTT, 5% glycerol; pH 7.5, PLK was step eluted with 50 mM HEPES, 1 mM DTT, 500 mM NaCl; 5% glycerol; pH 7.5. PLK was concentrated using a 10 kDa molecular weight cutoff membrane and then loaded onto a Superdex 200 gel filtration (Amersham Pharmacia) column equilibrated in 25 mM HEPES, 1 mM DTT, 500 mM NaCl, 5% glycerol; pH 7.5. Fractions containing PLK were determined by SDS-PAGE. PLK was pooled, aliquoted and stored at −80° C. Samples were quality controlled using mass spectrometry, N-terminal sequencing and amino acid analysis.
All measurements were obtained under conditions where signal production increased linearly with time and enzyme. Test compounds were added to white 384-well assay plates (0.1 μL for 10 μL and some 20 μL assays, 1 μL for some 20 μL assays) at variable known concentrations in 100% DMSO. DMSO (I-5% final, as appropriate) and EDTA (65 mM in reaction) were used as controls. Reaction Mix was prepared as follows at 22° C.: • 25 mM HEPES, pH 7.2 • 15 mM MgCl2 • 1 μM ATP • 0.05 μCi/well ^33P-γ ATP (10 Ci/mMol) • 1 μM substrate peptide (Biotin-Ahx-SFNDTLDFD) SEQ ID: No. 2. • 0.15 mg/mL BSA • 1 mM DTT • 2 nM PLK1 kinase domain (added last)
Reaction Mix (10 or 20 μL) was quickly added to each well immediately following addition of enzyme via automated liquid handlers and incubated 1-1.5 h at 22° C. The 20 μL enzymatic reactions were stopped with 50 μL of stop mix (50 mM EDTA, 4.0 mg/mL Streptavidin SPA beads in Standard Dulbecco's PBS (without Mg^2+ and Ca^2+), 50 μM ATP) per well. The 10 μL reactions were stopped with 10 μL of stop mix (50 mM EDTA, 3.0 mg/mL Streptavidin-coupled SPA Imaging Beads (“LeadSeeker”) in Standard Dulbecco's PBS (without Mg^2+ and Ca^2+), 50 μM ATP) per well. Plates were sealed with clear plastic seals, spun at 500×g for 1 min or settled overnight, and counted in Packard TopCount for 30 seconds/well (regular SPA) or imaged using a Viewlux imager (LeadSeeker SPA). Signal above background (EDTA controls) was converted to percent inhibition relative to that obtained in control (DMSO-only) wells.

HCT116 = test: Inhibition of Cell Proliferation (methylene blue or CellTiter-Glo); type: cell-based; details: Homo sapiens, HCT-116; HCT116 cell growth, seventy two hours post-treatment, 10% fetal bovine serum
Protocol: Exponentially growing cell lines of different tumor origins, cultured in appropriate media containing 10% fetal bovine serum at 37° C. in a 5% CO2 incubator were plated at low density (less than 2000 cells/well) in 96-well plates. Twenty four hours post-plating, cells were treated with different concentrations of test compounds ranging from 10 uM to 0.04 nM. Several wells were left untreated as a control. Seventy two hours post-treatment, cell numbers were determined using different techniques; 100 μl per well of methylene blue (Sigma M9140) (0.5% in 50:50 Ethanol:water), or 50-100 ul per well of CellTiter-Glo (Promega #G7573). For methylene blue staining, stain was incubated at room temperature for 30 minutes before plates were rinsed and dye solubilized in 1% N-lauroyl sarcosine, sodium salt, (Sigma L5125, in PBS). Plates were read on a microplate reader, measuring the OD at 620 nm. For CellTiter-Glo, plates were incubated at room temperature for 15 minutes and the chemiluminescent signal was read on the Victor V or Envison 2100 reader.
Percent inhibition of cell growth was expressed as percent proliferation relative to 100% proliferation (control). Concentration of test compound that inhibited 50% of cell growth (IC50) was determined by 4 parameter fit of data using XLfit, (value of no cell control was substracted from all samples for background). The data are shown in Table 1 and Table 2 below and represent a compilation of several different experiments each performed using the general parameters outlined above, although minor variations may have been employed in some instances. In Table 1 and Table 2, +=IC50>1+M; ++=IC50 0.5-1 μM: +++=IC50<0.5 μM.

Structure (SMILES)	IC50 (PLK1 kinase domain) [µM]	IC50 (HCT116) [µM]
C[C@@H](Oc1cc(-n2cnc3cc(-c4cnn(C)c4)ccc32)sc1C(N)=O)c1cccc(OCCCN(C)C)c1Cl [Example 9, 3-{[(1R)-1-(2-chloro-3-{[3-(dimethylamino)propyl]oxy}phenyl)ethyl]oxy}-5-[5-(1-methyl-1H-pyrazol-4-yl)-1H-benzimidazol-1-yl]-2-thiophenecarboxamide]	< 0.1	< 0.5
C[C@@H](Oc1cc(-n2cnc3cc(-c4cnn(C)c4)ccc32)sc1C(N)=O)c1cccc(OCCN(C)C)c1Cl [Example 8, 3-{[(1R)-1-(2-chloro-3-{[2-(dimethylamino)ethyl]oxy}phenyl)ethyl]oxy}-5-[5-(1-methyl-1H-pyrazol-4-yl)-1H-benzimidazol-1-yl]-2-thiophenecarboxamide]	< 0.1	< 0.5
COc1cc2ncn(-c3cc(O[C@H](C)c4cc(C(=O)NCCN(C)C)ccc4Cl)c(C(N)=O)s3)c2cc1OC [Example 1, 5-[5,6-Bis(methyloxy)-1H-benzimidazol-1-yl]-3-({(1R)-1-[2-chloro-5-({[2-(dimethylamino)ethyl]amino}carbonyl)phenyl]ethyl}oxy)-2-thiophenecarboxamide formate]	0.1 to 1	–
COc1cc2ncn(-c3cc(O[C@H](C)c4cccc(NCCO)c4Cl)c(C(N)=O)s3)c2cc1OC [Example 2, 5-[5,6-Bis(methyloxy)-1H-benzimidazol-1-yl]-3-[((1R)-1-{2-chloro-3-[(2-hydroxyethyl)amino]phenyl}ethyl)oxy]-2-thiophenecarboxamide]	–	< 0.5
C[C@@H](Oc1cc(-n2cnc3cc(-c4cnn(C)c4)ccc32)sc1C(N)=O)c1cccc(OCCCO)c1Cl [Example 5]	< 0.1	< 0.5
C[C@@H](Oc1cc(-n2cnc3cc(-c4cnn(C)c4)ccc32)sc1C(N)=O)c1cccc(OCCO)c1Cl [Example 6, 3-[((1R)-1-{2-chloro-3-[(2-hydroxyethyl)oxy]phenyl}ethyl)oxy]-5-[5-(1-methyl-1H-pyrazol-4-yl)-1H-benzimidazol-1-yl]-2-thiophenecarboxamide]	< 0.1	< 0.5
C[C@@H](Oc1cc(-n2cnc3ccccc32)sc1C(N)=O)c1cccc(OCCN)c1Cl [Example 4, 3-[((1R)-1-{3-[(2-Aminoethyl)oxy]-2-chlorophenyl}ethyl)oxy]-5-(1H-benzimidazol-1-yl)-2-thiophenecarboxamide]	< 0.1	< 0.5
C[C@@H](Oc1cc(-n2cnc3cc(-c4cnn(C)c4)ccc32)sc1C(N)=O)c1cccc(OCCN)c1Cl [Example 7, 3-[((1R)-1-{3-[(2-aminoethyl)oxy]-2-chlorophenyl}ethyl)oxy]-5-[5-(1-methyl-1H-pyrazol-4-yl)-1H-benzimidazol-1-yl]-2-thiophenecarboxamide hydrochloride]	< 0.1	< 0.5
COc1cc2ncn(-c3cc(O[C@H](C)c4cccc(OCCN)c4Cl)c(C(N)=O)s3)c2cc1OC [Example 3, 3-[((1R)-1-{3-[(2-aminoethyl)oxy]-2-chlorophenyl}ethyl)oxy]-5-[5,6-bis(methyloxy)-1H-benzimidazol-1-yl]-2-thiophenecarboxamide]	< 0.1	< 0.5
